Patent US9938258B2 (Karyopharm Therapeutics Inc., priority 2012, dated 2018)
Read-outs that look alike come from different tables or passages of the source.

Tests used:
[1] = system: MS751 cells; experiment: MTT cell proliferation assay, MS751; assay type: cell-based, human
Method in brief: (§1)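 Cells plated at 5,000-10,000/well and attached overnight, then treated with eight compound concentrations from 1 nM to 30 μM. MTT added ~4 h, formazan solubilised and read at 490 nm. Percent inhibition versus negative control = (1-(ODo/OD))×100, mostly in duplicate, mean ± SE.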

[2] = system: Z138 cells; experiment: MTT cell proliferation assay, Z138; assay type: cell-based
Method in brief: as §1

[3] = system: 3T3 cells; experiment: MTT cell proliferation assay, 3T3; assay type: cell-based, mouse
Method in brief: as §1

[4] = Homo sapiens, MS751, MS751 cells, approximately 64-72 hours incubation, read-out: MTT Assay IC50, MS751
[5] = Homo sapiens, Z-138, Z138 cells, approximately 64-72 hours incubation, read-out: MTT Assay IC50, Z138
[6] = Mus musculus, NIH3T3, 3T3 cells, approximately 64-72 hours incubation, read-out: MTT Assay IC50, 3T3
[7] = Homo sapiens, MS751, MS751 cells, eight concentrations 1 nM to 30 μM, incubation approximately 64-72 hours, read-out: MTT Assay IC50, MS751
[8] = Homo sapiens, Z-138, Z138 cells, eight concentrations 1 nM to 30 μM, incubation approximately 64-72 hours, read-out: MTT Assay IC50, Z138
[9] = Mus musculus, NIH3T3, 3T3 cells, eight concentrations 1 nM to 30 μM, incubation approximately 64-72 hours, read-out: MTT Assay IC50, 3T3

Question: With `Nc1ccc(/C=C/C(=O)NCC2Cc3cc(-c4cnc(C(=O)N5CCOCC5)c(F)c4)cc(Cl)c3O2)cn1` (stereo not drawn) [Compound 329, (E)-3-(6-Aminopyridin-3-yl)-N-((7-chloro-5-(5-fluoro-6-(morpholine-4-carbonyl)pyridin-3-yl)-2,3-dihydrobenzofuran-2-yl)methyl)acrylamide] as the compound, how does the IC50 [1, 4] read?
Answer: 0.1 to 5 µM

Question: And the IC50 [2, 5]?
Answer: < 0.1 µM

Question: And the IC50 [3, 6]?
Answer: 5 to 30 µM

Question: Which results are given for `CC(=O)c1ccc(-c2cc(Cl)c3c(c2)CC(CNC(=O)/C(C#N)=C/c2ccoc2)O3)s1` (stereo not drawn) [Compound 286, (E)-N-((5-(5-acetylthiophen-2-yl)-7-chloro-2,3-dihydrobenzofuran-2-yl)methyl)-2-cyano-3-(furan-3-yl) acrylamide]?
Answer: IC50 ([1]; Homo sapiens, MS751, read-out: MTT Assay IC50, MS751): 5 to 30 µM; IC50 ([2]; Homo sapiens, Z-138, read-out: MTT Assay IC50, Z138): 5 to 30 µM; IC50 ([3]; Mus musculus, NIH3T3, read-out: MTT Assay IC50, 3T3): > 30 µM

Question: Which results are given for `COc1cccc(-c2cc(Cl)c3c(c2)CC(CNC(=O)/C=C/c2cccnc2)O3)c1F` (stereo not drawn) [Compound 39, (E)-N-((7-chloro-5-(2-fluoro-3-methoxyphenyl)-2,3-dihydrobenzofuran-2-yl)methyl)-3-(pyridin-3-yl)acrylamide]?
Answer: IC50 [1, 7]: 0.1 to 5 µM; IC50 [2, 8]: 0.1 to 5 µM; IC50 [3, 9]: 0.1 to 5 µM

Question: Which results are given for `CC(=O)c1ccc(-c2cc(Cl)c3c(c2)CC(CNC(=O)/C=C/c2ccc(N)nc2)O3)s1` (single isomer, unassigned) [Compound 309, (E)-N-((5-(5-acetylthiophen-2-yl)-7-chloro-2,3-dihydrobenzofuran-2-yl)methyl)-3-(6-aminopyridin-3-yl)acrylamide]?
Answer: IC50 ([1]; MS751 cells, approximately 64-72 hours incubation, read-out: MTT Assay IC50, MS751): 0.1 to 5 µM; IC50 ([2]; Z138 cells, approximately 64-72 hours incubation, read-out: MTT Assay IC50, Z138): < 0.1 µM; IC50 ([3]; 3T3 cells, approximately 64-72 hours incubation, read-out: MTT Assay IC50, 3T3): 5 to 30 µM

Question: Which IC50 [1, 4] does the source give for `CC(=O)c1ccc(-c2cc(Cl)c3c(c2)CC(CNC(=O)/C=C/c2nc4ccccc4o2)O3)s1` (stereo not drawn) [Compound 290, (E)-N-((5-(5-acetylthiophen-2-yl)-7-chloro-2,3-dihydrobenzofuran-2-yl)methyl)-3-(benzo[d]oxazol-2-yl)acrylamide] here?
Answer: > 30 µM

Question: What about the IC50 [2, 5] of the same compound?
Answer: > 30 µM

Question: What about the IC50 [3, 6] of the same compound?
Answer: > 30 µM

Question: Which IC50 [1, 4] does the source give for `CC(=O)c1ccc(-c2cc(Cl)c3c(c2)CC(CNC(=O)/C=C/c2cccnn2)O3)s1` (single isomer, unassigned) [Compound 317, (E)-N-((5-(5-acetylthiophen-2-yl)-7-chloro-2,3-dihydrobenzofuran-2-yl)methyl)-3-(pyridazin-3-yl)acrylamide] here?
Answer: 0.1 to 5 µM

Question: And the IC50 [2, 5]?
Answer: 0.1 to 5 µM

Question: And the IC50 [3, 6]?
Answer: > 30 µM

Question: Which results are given for `Cc1cc(Cl)c2c(c1)CC(CNC(=O)/C=C/c1cccnc1)O2` (stereo not drawn) [Compound 275, (E)-N-((7-chloro-5-methyl-2,3-dihydrobenzofuran-2-yl)methyl)-3-(pyridin-3-yl)acrylamide]?
Answer: IC50 [1, 7]: 5 to 30 µM; IC50 [2, 8]: 5 to 30 µM; IC50 [3, 9]: > 30 µM

Question: Which results are given for `O=C(/C=C/c1cccnc1)NCC1Cc2cccc(Cl)c2O1` (stereo not drawn) [Compound 83, (E)-N-((7-chloro-2,3-dihydrobenzofuran-2-yl)methyl)-3-(pyridin-3-yl)acrylamide]?
Answer: IC50 [1, 7]: 5 to 30 µM; IC50 [2, 8]: 5 to 30 µM; IC50 [3, 9]: > 30 µM

Question: `CC(=O)c1ccc(-c2cccc3c2OC(CNC(=O)/C=C/c2ccc(N)nc2)C3)s1` (stereo not drawn) [Compound 305, (E)-N-((7-(5-Acetylthiophen-2-yl)-2,3-dihydrobenzofuran-2-yl)methyl)-3-(6-aminopyridin-3-yl)acrylamide] was tested. Which IC50 [1, 4] did it give?
Answer: 0.1 to 5 µM

Question: And the IC50 [2, 5]?
Answer: 0.1 to 5 µM

Question: What about the IC50 [3, 6] of the same compound?
Answer: 5 to 30 µM

Question: What does the source list for `C=C(Cc1cccnc1)C(=O)NCC1Cc2cc(-c3ccc(C(C)=O)s3)cc(Cl)c2O1` (stereo not drawn) [Compound 240, N-((5-(5-acetylthiophen-2-yl)-7-chloro-2,3-dihydrobenzofuran-2-yl)methyl)-2-(pyridin-3-ylmethyl)acrylamide]?
Answer: IC50 [1, 4]: 5 to 30 µM; IC50 [2, 5]: 5 to 30 µM; IC50 [3, 6]: > 30 µM

Question: `CC(=O)c1ccc(-c2cc(C)c3c(c2)CC(CNC(=O)/C=C/c2cccnc2)O3)s1` (stereo not drawn) [Compound 138, (E)-N-((5-(5-acetylthiophen-2-yl)-7-methyl-2,3-dihydrobenzofuran-2-yl)methyl)-3-(pyridin-3-yl)acrylamide] was tested. Which IC50 [1, 7] did it give?
Answer: < 0.1 µM

Question: What about the IC50 [2, 8] of the same compound?
Answer: < 0.1 µM

Question: What about the IC50 [3, 9] of the same compound?
Answer: 0.1 to 5 µM

Question: `Nc1ccc(CNC(=O)/C=C/C2Cc3c(-c4ccc(C(=O)N5CC(F)C5)cc4)ccc(Cl)c3O2)cn1` (stereo not drawn) [Compound 352, (E)-N-((6-aminopyridin-3-yl)methyl)-3-(7-chloro-4-(4-(3-fluoroazetidine-1-carbonyl)phenyl)-2,3-dihydrobenzofuran-2-yl)acrylamide] was tested. Which IC50 [1, 4] did it give?
Answer: 0.1 to 5 µM

Question: What about the IC50 [2, 5] of the same compound?
Answer: > 30 µM

Question: What about the IC50 [3, 6] of the same compound?
Answer: 5 to 30 µM

Question: With `Cc1onc(-c2ccccc2)c1-c1cc(Cl)c2c(c1)CC(CNC(=O)/C=C/c1ccc(N)nc1)O2` (stereo not drawn) [Compound 325, (E)-3-(6-aminopyridin-3-yl)-N-((7-chloro-5-(5-methyl-3-phenylisoxazol-4-yl)-2,3-dihydrobenzofuran-2-yl)methyl)acrylamide] as the compound, how does the IC50 [1, 4] read?
Answer: 0.1 to 5 µM

Question: What about the IC50 [2, 5] of the same compound?
Answer: < 0.1 µM

Question: What about the IC50 [3, 6] of the same compound?
Answer: 0.1 to 5 µM

Question: How did the IC50 [1, 4] turn out when `CC(=O)c1ccc(-c2cc(Cl)c3c(c2)CC(CNC(=O)/C=C/c2ccc(N)nc2)O3)o1` (stereo not drawn) [Compound 319, (E)-N-((5-(5-acetylfuran-2-yl)-7-chloro-2,3-dihydrobenzofuran-2-yl)methyl)-3-(6-aminopyridine-3-yl)acrylamide] was run?
Answer: 0.1 to 5 µM

Question: What about the IC50 [2, 5] of the same compound?
Answer: < 0.1 µM

Question: What about the IC50 [3, 6] of the same compound?
Answer: 5 to 30 µM

Question: With `CS(=O)(=O)c1cccc(-c2cc(Cl)c3c(c2)CC(CNC(=O)/C=C/c2cccnc2)O3)c1` (stereo not drawn) [Compound 80, (E)-N-((7-chloro-5-(3-(methylsulfonyl)phenyl)-2,3-dihydrobenzofuran-2-yl)methyl)-3-(pyridin-3-yl)acrylamide] as the compound, how does the IC50 [1, 7] read?
Answer: 0.1 to 5 µM

Question: And the IC50 [2, 8]?
Answer: 0.1 to 5 µM

Question: And the IC50 [3, 9]?
Answer: 0.1 to 5 µM

Question: `O=C(/C=C/c1cccnc1)NCC1Cc2cc(-c3cc(Cl)cc(Cl)c3)cc(Cl)c2O1` (stereo not drawn) [Compound 32, (E)-N-((7-chloro-5-(3,5-dichlorophenyl)-2,3-dihydrobenzofuran-2-yl)methyl)-3-(pyridin-3-yl)acrylamide] was tested. Which IC50 [1, 7] did it give?
Answer: 0.1 to 5 µM

Question: And the IC50 [2, 8]?
Answer: 0.1 to 5 µM

Question: What about the IC50 [3, 9] of the same compound?
Answer: > 30 µM

Question: With `CC(=O)c1ccc(-c2cc(Cl)c3c(c2)CC(CNC(=O)/C=C/c2ccc(-c4ccc(F)cc4)s2)O3)s1` (stereo not drawn) [Compound 297, (E)-N-((5-(5-acetylthiophen-2-yl)-7-chloro-2,3-dihydrobenzofuran-2-yl)methyl)-3-(5-(4-fluorophenyl)thiophen-2-yl)acrylamide] as the compound, how does the IC50 [1, 4] read?
Answer: > 30 µM

Question: And the IC50 [2, 5]?
Answer: > 30 µM

Question: And the IC50 [3, 6]?
Answer: > 30 µM

Question: Which IC50 [1, 4] does the source give for `CC(=O)c1ccc(-c2cc(Cl)c3c(c2)CC(CNC(=O)/C=C/c2coc(C)n2)O3)s1` (stereo not drawn) [Compound 196, (E)-N-((5-(5-acetylthiophen-2-yl)-7-chloro-2,3-dihydrobenzofuran-2-yl)methyl)-3-(2-methyloxazol-4-yl)acrylamide] here?
Answer: > 30 µM

Question: And the IC50 [2, 5]?
Answer: > 30 µM

Question: What about the IC50 [3, 6] of the same compound?
Answer: > 30 µM

Question: With `CC(O)c1ccc(-c2cc(Cl)c3c(c2)CC(CNC(=O)/C=C/c2ccc(N)nc2)O3)s1` (stereo not drawn) [Compound 306, (E)-3-(6-aminopyridin-3-yl)-N-((7-chloro-5-(5-(1-hydroxyethyl)thiophen-2-yl)-2,3-dihydrobenzofuran-2-yl)methyl)acrylamide] as the compound, how does the IC50 [1, 4] read?
Answer: 0.1 to 5 µM

Question: What about the IC50 [2, 5] of the same compound?
Answer: 0.1 to 5 µM

Question: And the IC50 [3, 6]?
Answer: > 30 µM

Question: Which results are given for `CC(=O)c1ccc(-c2cc(Cl)c3c(c2)CC(CNC(=O)/C=C/c2sccc2C)O3)s1` (stereo not drawn) [Compound 152, (E)-N-((5-(5-acetylthiophen-2-yl)-7-chloro-2,3-dihydrobenzofuran-2-yl)methyl)-3-(3-methylthiophen-2-yl)acrylamide]?
Answer: IC50 [1, 7]: > 30 µM; IC50 [2, 8]: > 30 µM; IC50 [3, 9]: > 30 µM
